Where “and” joins values, the source holds several entries; their conditions need not be identical. Identical values can stand only once. Inconclusive results are not listed.

The results in this text go back to PubChem BioAssay AID212 (DTP/NCI, 2004).

In this assay the test system is BDF1 mice, colon carcinoma 38 sc, T/C %. Description: NCI In Vivo Anticancer Drug Screen. Data for tumor model Colon Carcinoma 38 (subcutaneous) in B6D2F1 (BDF1) mice. As to conditions: endpoint: median tumor weight (est.), higher = larger tumour. The procedure, abridged:
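Compound antitumor activity was assessed in mice carrying transplantable tumors. Survival or tumor size was recorded, and each value is the treated-group measurement divided by that of the vehicle-treated control group.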

Where [1] appears, read: dose: 100.0 mg/kg/injection, schedule: Q07DX002 (ip), vehicle: saline with Tween-80.
The mark [2] stands for this setting: dose: 200.0 mg/kg/injection, schedule: Q07DX002 (ip), vehicle: saline with Tween-80.
Setting [3] is: dose: 400.0 mg/kg/injection, schedule: Q07DX002 (ip), vehicle: saline with Tween-80.
[4] abbreviates: dose: 100.0 mg/kg/injection, schedule: Q07DX002 (ip), vehicle: Klucel (hydroxypropylcellulose) (HPC).
Setting [5] is: dose: 200.0 mg/kg/injection, schedule: Q07DX002 (ip), vehicle: Klucel (hydroxypropylcellulose) (HPC).
Setting [6] is: dose: 400.0 mg/kg/injection, schedule: Q07DX002 (ip), vehicle: Klucel (hydroxypropylcellulose) (HPC).
Where [7] appears, read: dose: 3.12 mg/kg/injection, schedule: Q07DX002 (ip), vehicle: saline.
Setting [8] is: dose: 6.25 mg/kg/injection, schedule: Q07DX002 (ip), vehicle: saline.
The mark [9] stands for this setting: dose: 12.5 mg/kg/injection, schedule: Q07DX002 (ip), vehicle: saline.
Setting [10] is: dose: 25.0 mg/kg/injection, schedule: Q07DX002 (ip), vehicle: saline.
The mark [11] stands for this setting: dose: 25.0 mg/kg/injection, schedule: Q07DX002 (ip), vehicle: Klucel (hydroxypropylcellulose) (HPC).
Setting [12] is: dose: 50.0 mg/kg/injection, schedule: Q07DX002 (ip), vehicle: Klucel (hydroxypropylcellulose) (HPC).
[13] abbreviates: dose: 12.5 mg/kg/injection, schedule: Q07DX002 (ip), vehicle: Klucel (hydroxypropylcellulose) (HPC).

Take `CCCCNCCCNCCCNC(=O)c1csc(-c2csc(CCNC(=O)C(NC(=O)C(C)C(O)C(C)NC(=O)C(NC(=O)c3nc(C(CC(N)=O)NCC(N)C(N)=O)nc(N)c3C)C(OC3OC(CO)C(O)C(O)C3OC3OC(CO)C(O)C(OC(N)=O)C3O)c3cnc[nH]3)C(C)O)n2)n1` (stereo not drawn): the T/C is 81 % of control (dose: 3.75 mg/kg/injection, schedule: Q07DX002 (ip), vehicle: water); 61 % of control (dose: 7.5 mg/kg/injection, schedule: Q07DX002 (ip), vehicle: water); 56 % of control (dose: 15.0 mg/kg/injection, schedule: Q07DX002 (ip), vehicle: water); 48 % of control (dose: 30.0 mg/kg/injection, schedule: Q07DX002 (ip), vehicle: water).

`O=C(O)CP(=O)(O)O`: the T/C is, setting by setting: (dose: 200.0 mg/kg/injection, schedule: Q07DX002 (ip), vehicle: saline) 115 % of control and 96 % of control; (dose: 800.0 mg/kg/injection, schedule: Q07DX002 (ip), vehicle: saline) 78 % of control and 80 % of control; (dose: 1600.0 mg/kg/injection, schedule: Q07DX002 (ip), vehicle: saline) 59 % of control.

As for `CN=C(N)N/N=C(\C)c1ccc2c(c1)Cc1cc(/C(C)=N/NC(N)=NC)ccc1-2`, the T/C is 104 % of control (dose: 0.75 mg/kg/injection, schedule: Q07DX002 (ip), vehicle: saline with Tween-80) and 115 % of control (dose: 3.0 mg/kg/injection, schedule: Q07DX002 (ip), vehicle: saline with Tween-80).

Regarding `CN(C)C1C(=O)C(C(=O)NP(=O)(NCCCO)N(CCCl)CCCl)=C(O)C2(O)C(=O)C3=C(O)c4c(O)cccc4C(C)(O)C3CC12` (stereo not drawn), the T/C by setting is: (dose: 50.0 mg/kg/injection, schedule: Q07DX002 (ip), vehicle: saline with Tween-80) 82 % of control; under setting [1], 95 % of control; under setting [2], 56 % of control; under setting [3], 17 % of control.

`Cc1cc(=O)c2cccc(CC(=O)O)c2o1`: the T/C runs as follows: under setting [4], 119 % of control; under setting [5], 114 % of control; under setting [6], 76 % of control.

As to `CC(C)CC(NC(=O)C(O)C(N)Cc1ccccc1)C(=O)O` (stereo not drawn), the T/C is 85 % of control (dose: 10.0 micrograms/mouse/injection, schedule: Q10HX006 (ip), vehicle: saline); 74 % of control (dose: 10.0 micrograms/mouse/injection, schedule: Q10HX010 (oral), vehicle: saline); 50 % of control (dose: 100.0 micrograms/mouse/injection, schedule: Q10HX006 (ip), vehicle: saline); 62 % of control (dose: 100.0 micrograms/mouse/injection, schedule: Q10HX010 (oral), vehicle: saline).

For the compound `CC(=O)NC(Cc1ccc(F)cc1)C(=O)O` (stereo not drawn), the T/C reads like this: under setting [1], 84 % of control; under setting [2], 83 % of control; under setting [3], 77 % of control; (dose: 800.0 mg/kg/injection, schedule: Q07DX002 (ip), vehicle: saline with Tween-80) 77 % of control.

Consider `Brc1c(NC2=NCCN2)ccc2nccnc12`, for which the T/C reads like this: under setting [7], 87 % of control; under setting [8], 98 % of control; under setting [9], 92 % of control; under setting [10], 82 % of control; (dose: 50.0 mg/kg/injection, schedule: Q07DX002 (ip), vehicle: saline) 72 % of control; (dose: 100.0 mg/kg/injection, schedule: Q07DX002 (ip), vehicle: saline) 75 % of control.

Take `CC1CN=C(c2ccc(NC(=O)c3ccc(C(=O)Nc4ccc(C5=NCC(C)N5)cc4)cc3)cc2)N1` (stereo not drawn): the T/C runs as follows: (dose: 12.5 mg/kg/injection, schedule: Q07DX003 (ip), vehicle: Klucel (hydroxypropylcellulose) (HPC)) 78 % of control and 79 % of control; (dose: 25.0 mg/kg/injection, schedule: Q07DX003 (ip), vehicle: Klucel (hydroxypropylcellulose) (HPC)) 115 % of control and 102 % of control; (dose: 200.0 mg/kg/injection, schedule: Q07DX003 (ip), vehicle: Klucel (hydroxypropylcellulose) (HPC)) 86 % of control; (dose: 400.0 mg/kg/injection, schedule: Q07DX003 (ip), vehicle: Klucel (hydroxypropylcellulose) (HPC)) 63 % of control.

For `COC(C(=O)C(O)C(C)O)C1CC2C=C3C=C(OC4CC(OC5CC(O)C(OC)C(C)O5)C(OC(C)=O)C(C)O4)C(C)C(=O)C3=C(O)C2=C(O)C1OC1CC(OC2CC(OC3CC(C)(O)C(O)C(C)O3)C(O)C(C)O2)C(O)C(C)O1` (stereo not drawn), the T/C is 121 % of control (dose: 1.0 mg/kg/injection, schedule: Q07DX002 (ip), vehicle: saline with Tween-80); 150 % of control (dose: 2.0 mg/kg/injection, schedule: Q07DX002 (ip), vehicle: saline with Tween-80); 112 % of control (dose: 4.0 mg/kg/injection, schedule: Q07DX002 (ip), vehicle: saline with Tween-80); 114 % of control (dose: 8.0 mg/kg/injection, schedule: Q07DX002 (ip), vehicle: saline with Tween-80); 111 % of control (dose: 16.0 mg/kg/injection, schedule: Q07DX002 (ip), vehicle: saline with Tween-80).

For `O=C1C2(Cl)C3(Cl)C4(Cl)C(Cl)(Cl)C5(Cl)[C@]3(Cl)C1(Cl)[C@]5(Cl)C24Cl` (stereo partly drawn), the T/C is 88 % of control under setting [11], 75 % of control under setting [12] and 44 % of control under setting [4].

As for `O=C1C=C(C2OC(CO)C(O)C2O)C(=O)N1` (stereo not drawn), the T/C by setting is: (dose: 1.56 mg/kg/injection, schedule: Q07DX002 (ip), vehicle: saline) 66 % of control; under setting [7], 56 % of control; under setting [8], 70 % of control; under setting [9], 113 % of control; under setting [10], 83 % of control.

`O=c1[nH]c(=O)n(C2CC(O)C(CO)O2)cc1Br` (stereo not drawn): the T/C was 112 % of control under setting [12]; 86 % of control and 87 % of control under setting [6]; 88 % of control (dose: 800.0 mg/kg/injection, schedule: Q07DX002 (ip), vehicle: Klucel (hydroxypropylcellulose) (HPC)).

As to `C=C(NC(=O)C(=C)NC(=O)c1csc(C2=NC3c4csc(n4)C4NC(=O)c5csc(n5)C(C(C)(O)C(C)O)NC(=O)C5CSC(=N5)/C(=C/C)NC(=O)C(C(C)O)NC(=O)c5csc(n5)C3(CC2)NC(=O)C(C)NC(=O)C(=C)NC(=O)C(=C)NC(=O)C(C(C)C)NC2C=Cc3c(C(C)O)cc(nc3C2O)C(=O)OC4C)n1)C(N)=O` (stereo not drawn), the T/C was 95 % of control (dose: 12.5 mg/kg/injection, schedule: Q07DX002 (ip), vehicle: suspension in saline); 98 % of control (dose: 25.0 mg/kg/injection, schedule: Q07DX002 (ip), vehicle: suspension in saline); 111 % of control (dose: 50.0 mg/kg/injection, schedule: Q07DX002 (ip), vehicle: suspension in saline); 72 % of control (dose: 100.0 mg/kg/injection, schedule: Q07DX002 (ip), vehicle: suspension in saline); 75 % of control (dose: 200.0 mg/kg/injection, schedule: Q07DX002 (ip), vehicle: suspension in saline); 86 % of control (dose: 400.0 mg/kg/injection, schedule: Q07DX002 (ip), vehicle: suspension in saline).

As to `CCN(C)N=Nc1ccc(C(N)=O)cc1`, the T/C was 82 % of control and 84 % of control under setting [13]; 82 % of control and 87 % of control under setting [11]; 56 % of control and 63 % of control and 76 % of control under setting [12]; 61 % of control and 77 % of control and 78 % of control under setting [4].

Consider `O=C(O)CSc1nc(-c2ccccc2)c(-c2ccccc2)n1-c1ccccn1`, for which the T/C is, setting by setting: under setting [13], 92 % of control; under setting [11], 83 % of control; (dose: 25.0 mg/kg/injection, schedule: Q07DX002 (ip), vehicle: water) 114 % of control; under setting [12], 72 % of control; (dose: 50.0 mg/kg/injection, schedule: Q07DX002 (ip), vehicle: water) 112 % of control; under setting [4], 106 % of control. The T/C is 95 % of control (dose: 100.0 mg/kg/injection, schedule: Q07DX002 (ip), vehicle: water); 73 % of control under setting [5]; 89 % of control (dose: 200.0 mg/kg/injection, schedule: Q07DX002 (ip), vehicle: water).

As for `CN1CCc2c(c3ccccc3c3ccccc23)C1`, the T/C is, setting by setting: (dose: 6.25 mg/kg/injection, schedule: Q07DX002 (ip), vehicle: Klucel (hydroxypropylcellulose) (HPC)) 111 % of control; under setting [13], 93 % of control; under setting [12], 86 % of control; under setting [4], 72 % of control.
